From ChEMBL document CHEMBL4145662, “Novel Nonsteroidal Progesterone Receptor (PR) Antagonists with a Phenanthridinone Skeleton” (ACS Med Chem Lett, 2018)

molecular target: T1, Progesterone receptor (Homo sapiens, UniProt P06401); assay: Antagonist activity at PR in human T47D cells assessed as inhibition of progesterone-induced alkaline phosphatase activity measured after 24 hrs; format: cell-based
T1 sequence (P06401 whole entry): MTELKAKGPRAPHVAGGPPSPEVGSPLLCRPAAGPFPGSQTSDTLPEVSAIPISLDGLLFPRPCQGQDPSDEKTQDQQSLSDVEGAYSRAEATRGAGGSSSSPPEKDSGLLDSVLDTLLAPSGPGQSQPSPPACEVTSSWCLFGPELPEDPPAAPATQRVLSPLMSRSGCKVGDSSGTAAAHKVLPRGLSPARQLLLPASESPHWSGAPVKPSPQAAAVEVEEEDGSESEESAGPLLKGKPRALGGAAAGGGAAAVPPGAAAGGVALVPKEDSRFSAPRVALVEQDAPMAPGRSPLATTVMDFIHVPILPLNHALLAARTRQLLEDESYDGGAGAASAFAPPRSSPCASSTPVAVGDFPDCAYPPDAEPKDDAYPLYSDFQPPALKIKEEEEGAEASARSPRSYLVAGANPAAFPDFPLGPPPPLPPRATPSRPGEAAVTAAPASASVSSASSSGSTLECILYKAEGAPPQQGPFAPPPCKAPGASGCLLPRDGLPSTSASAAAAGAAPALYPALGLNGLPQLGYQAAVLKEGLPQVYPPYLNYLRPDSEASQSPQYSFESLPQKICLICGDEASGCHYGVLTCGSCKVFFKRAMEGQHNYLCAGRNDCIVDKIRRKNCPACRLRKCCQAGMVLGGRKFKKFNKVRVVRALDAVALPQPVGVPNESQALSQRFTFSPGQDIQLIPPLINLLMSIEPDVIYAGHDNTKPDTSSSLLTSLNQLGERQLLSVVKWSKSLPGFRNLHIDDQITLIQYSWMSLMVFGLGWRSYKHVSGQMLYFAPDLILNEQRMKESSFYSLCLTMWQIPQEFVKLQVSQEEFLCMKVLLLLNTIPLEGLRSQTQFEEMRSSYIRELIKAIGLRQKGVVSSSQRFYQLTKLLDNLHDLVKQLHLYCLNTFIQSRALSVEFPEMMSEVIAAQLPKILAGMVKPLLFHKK

Compound	IC50 [nM]
O=S(=O)(Nc1ccc(Oc2ccccc2)cc1)c1cccc(C(F)(F)F)c1	107
CCCCn1c(=O)c2ccccc2c2cc(C(C)(C)C)ccc21	8300
Cc1cc(C(O)(C(F)(F)F)C(F)(F)F)cc2c3ccccc3c(=O)n(C)c12	180
CCCCCCCCCn1c(=O)c2ccccc2c2cc(C(O)(C(F)(F)F)C(F)(F)F)ccc21	10000
CCCn1c(=O)c2ccccc2c2cc(C(O)(C(F)(F)F)C(F)(F)F)ccc21	3800
CCCCn1c(=O)c2ccccc2c2cc(C)ccc21	7900
CCCCCCn1c(=O)c2ccccc2c2cc(C(O)(C(F)(F)F)C(F)(F)F)ccc21	2500
CCCCn1c(=O)c2ccccc2c2cc(C(O)(C(F)(F)F)C(F)(F)F)c(OC)cc21	410
Cn1c(C#N)ccc1-c1ccc2oc(=O)ccc2c1	123
CCCCn1c(=O)c2ccccc2c2c(OC)c(C(O)(C(F)(F)F)C(F)(F)F)ccc21	4000
CCc1cc(C(O)(C(F)(F)F)C(F)(F)F)cc2c1[nH]c(=O)c1ccccc12	210
O=c1[nH]c2ccc(C(O)(C(F)(F)F)C(F)(F)F)cc2c2ccc(F)cc12	310
CCCCn1c(=O)c2ccccc2c2cc(CO)ccc21	8600
CCCCn1c(=O)c2ccccc2c2cc(C(O)(C(F)(F)F)C(F)(F)F)ccc21	1200
CCCCn1c(=O)c2cc(OC)ccc2c2cc(C(O)(C(F)(F)F)C(F)(F)F)ccc21	1100
CCCCn1c(=O)c2ccccc2c2cc(CC)ccc21	7800
CCCCn1c(=O)c2c(OC)cccc2c2cc(C(O)(C(F)(F)F)C(F)(F)F)ccc21	12000
O=c1[nH]c2c(F)cc(C(O)(C(F)(F)F)C(F)(F)F)cc2c2ccccc12	130
O=c1[nH]c2ccc(C(O)(C(F)(F)F)C(F)(F)F)cc2c2cc(F)ccc12	1000
O=c1[nH]c2ccc(C(O)(C(F)(F)F)C(F)(F)F)cc2c2cccc(F)c12	730
CCCCn1c(=O)c2cccc(OC)c2c2cc(C(O)(C(F)(F)F)C(F)(F)F)ccc21	2700
COc1cc(C(O)(C(F)(F)F)C(F)(F)F)cc2c1[nH]c(=O)c1ccccc12	270
CCCc1cc(C(O)(C(F)(F)F)C(F)(F)F)cc2c1[nH]c(=O)c1ccccc12	360
CCCCn1c(=O)c2ccccc2c2ccccc21	7100
CCCCn1c(=O)c2ccc(OC)cc2c2cc(C(O)(C(F)(F)F)C(F)(F)F)ccc21	5800
O=c1[nH]c2ccc(C(O)(C(F)(F)F)C(F)(F)F)cc2c2ccccc12	780
Cn1c(=O)c2ccccc2c2cc(C(O)(C(F)(F)F)C(F)(F)F)ccc21	340
CCCCn1c(=O)c2ccccc2c2cc(C(O)(C(F)(F)F)C(F)(F)F)cc(OC)c21	560
CCn1c(=O)c2ccccc2c2cc(C(O)(C(F)(F)F)C(F)(F)F)ccc21	1400

molecular target: T1, Progesterone receptor; assay: Agonist activity at PR in human T47D cells at 10 uM; format: cell-based

Compound	Activity
O=S(=O)(Nc1ccc(Oc2ccccc2)cc1)c1cccc(C(F)(F)F)c1	Not Active
Cn1c(C#N)ccc1-c1ccc2oc(=O)ccc2c1	Not Active
CC#C[C@]1(O)CC[C@H]2[C@@H]3CCC4=CC(=O)CCC4=C3[C@@H](c3ccc(N(C)C)cc3)C[C@@]21C [MIFEPRISTONE]	Not Active
